Read-outs that look alike come from different tables or passages of the source.
Tests used:
MDA-MB-468 = assay: MTT cancer cell proliferation assay, MDA-MB-468; type: cell-based, human; settings: Table 3, pyran-fused diterpenoids, MTT 48 h, mean ± SE of three experiments
Method: (§1) In Vitro Determination of Effects of Synthesized Diterpenoids on Cancer Cell Proliferation. Breast cancer cell lines MCF-7, MDA-MB-231, […] and MCF/ADR were seeded in 96-well plates at a density of 1×10^4 cells/well and treated with DMSO and 0.01, 0.1, 1, 5, 10, and 100 μM of individual compound for 48 h, and then 20 μL of 3-(4,5-dimethylthiazol-2-yl)-2,5-diphenyltetrazolium bromide (MTT) (5 mg/mL in PBS) was added to each well and further incubated for another 4 h. Then MTT solution was removed, and 150 μL of DMSO was added to each well. Absorbance of all wells was determined by measuring OD at 550 nm after a 10 min incubation on a 96-well GlowMaxate absorbance reader (Promega, Madison, Wis.). Each individual compound was tested in quadruplicate wells for each concentration.
(§2) The growth inhibitory effects of the newly generated pyran-fused diterpenoids were evaluated in four breast cancer cell lines MCF-7 (ER-positive), MDAMB-231 (ER-negative and triple-negative), MDA-MB-468 (ER-negative and triple-negative) as well as MCF-7/ADR (adriamycin-resistant) using MTT assays as described in the Experimental Section. The capability of these new molecules to inhibit the growth of cancer cells was summarized in Table 3 and compared with that of adriamycin and 1 spontaneously.

MCF-7/ADR = assay: MTT growth inhibition, drug-resistant MCF-7/ADR; type: cell-based, human; settings: Table 3, adriamycin-resistant, MTT 48 h, mean ± SE of three experiments
Method: as §1, §2

MCF-7 = assay: MTT cancer cell proliferation assay, MCF-7; type: cell-based, human
Method: as §1
(§3) The growth inhibitory effects of the newly generated pyran-fused diterpenoids were evaluated in four breast cancer cell lines MCF-7 (ER-positive), MDAMB-231 (ER-negative and triple-negative), MDA-MB-468 (ER-negative and triple-negative) as well as MCF-7/ADR (adriamycin-resistant) using MTT assays as described in the Experimental Section.

MDA-MB-231 = assay: MTT cancer cell proliferation assay, MDA-MB-231; type: cell-based, human
Method: as §1, §3

Panc-1 = assay: Cancer cell proliferation assay, Panc-1; type: cell-based; settings: Homo sapiens, PANC-1
Method: (§4) In Vitro Determination of Effects of Synthesized Diterpenoids on Cancer Cell Proliferation. […] Then MTT solution was removed, and 150 μL of DMSO was added to each well. Absorbance of all wells was determined by measuring OD at 550 nm after a 10 min incubation on a 96-well GlowMaxate absorbance reader (Promega, Madison, Wis.). Each individual compound was tested in quadruplicate wells for each concentration.

AsPC1 = assay: Cancer cell proliferation assay, AsPC1; type: cell-based; settings: Homo sapiens, ASPC1
Method: as §4

DU145 = assay: Cancer cell proliferation assay, DU145; type: cell-based; settings: Homo sapiens, DU-145
[1] = Homo sapiens, NCI/ADR-RES, 48 h
[2] = Homo sapiens, MCF7, 48 h, Table 3, pyran-fused diterpenoids, MTT 48 h, mean ± SE of three experiments, read-out: IC50 (μM) MCF-7
[3] = Homo sapiens, MDA-MB-231, 48 h, Table 3, pyran-fused diterpenoids, MTT 48 h, mean ± SE of three experiments, read-out: IC50 (μM) MDA-MB-231
[4] = Table 1a, pancreatic cancer, read-out: IC50 (μM) Panc-1
[5] = Table 2b, mean of at least three experiments, read-out: Effect on proliferation Panc-1 (IC50)
[6] = Table 1a, pancreatic cancer, read-out: IC50 (μM) AsPC1
[7] = Table 2b, mean of at least three experiments, read-out: Effect on proliferation AsPC1 (IC50)
[8] = Homo sapiens, MCF7, Table 1a, breast cancer, read-out: IC50 (μM) MCF-7
[9] = Homo sapiens, MCF7, Table 2b, mean of at least three experiments, read-out: Effect on proliferation MCF-7 (ER positive) (IC50)
[10] = Table 1a, prostate cancer, read-out: IC50 (μM) DU145
[11] = Table 2b, mean of at least three experiments, read-out: Effect on proliferation DU145 (IC50)
[12] = Homo sapiens, MDA-MB-231, Table 1a, breast cancer, read-out: IC50 (μM) MDA-MB-231
[13] = Homo sapiens, MDA-MB-231, Table 2b, mean of at least three experiments, read-out: Effect on proliferation MDA-MB-231 (ER negative) (IC50)
[14] = Table 3, pyran-fused diterpenoids, MTT 48 h, mean ± SE of three experiments, read-out: IC50 (μM) MCF-7
[15] = Table 3, pyran-fused diterpenoids, MTT 48 h, mean ± SE of three experiments, read-out: IC50 (μM) MDA-MB-231

Row | Compound | IC50 (MDA-MB-468; Homo sapiens, MDA-MB-468, 48 h) [µM] | IC50 (MCF-7/ADR; [1]) [µM] | IC50 (MCF-7; [2]) [µM] | IC50 (MDA-MB-231; [3]) [µM] | IC50 (Panc-1; [4]) [µM] | IC50 (Panc-1; [5]) [µM] | IC50 (AsPC1; [6]) [µM] | IC50 (AsPC1; [7]) [µM] | IC50 (MCF-7; [8]) [µM] | IC50 (MCF-7; [9]) [µM] | IC50 (DU145; [10]) [µM] | IC50 (DU145; [11]) [µM] | IC50 (MDA-MB-231; [12]) [µM] | IC50 (MDA-MB-231; [13]) [µM] | further results
1 | COc1cccc2c1C(=O)c1c(O)c3c(c(O)c1C2=O)C[C@@](O)(C(=O)CO)C[C@@H]3O[C@H]1C[C@H](N)[C@H](O)[C@H](C)O1 [Adriamycin, reference compound] | 0.65 ± 0.26 | > 10 | 0.67 ± 0.45 | 2.33 ± 0.22 |  |  |  |  |  |  |  |  |  |  | 
2 | C=C1C(=O)[C@]23[C@H](O)[C@H]1CC[C@H]2[C@@]12CO[C@]3(O)[C@@H](O)[C@@H]1C(C)(C)Cc1sc(N)nc12 [CYD-5-41, (5aR,6S,7S,7aR,10S,12aS,12bR,15R)-2-amino-6,7,15-trihydroxy-5,5-dimethyl-9-methylene-5,5a,6,7,10,11,12,12a-octahydro-4H-7,12b-(epoxymethano)-7a,10-methanocyclohepta[7,8]naphtho[1,2-d]thiazol-8(9H)-one] |  |  |  |  | 6.13 | 6.1 | 5.58 | 5.6 | 1.02 | 1 | 3.46 | 3.5 | 3.24 | 3.2 | 
3 | C=C1C(=O)[C@@]23C(CC[C@H]1[C@H]2O)[C@@]12CO[C@]3(O)[C@@H](O)C1C(C)(C)Cc1sc(NC(C)=O)nc12 (stereo partly drawn) [CYD-6-21, N-((6S,7S,7aR,10R,12bR,15R)-6,7,15-trihydroxy-5,5-dimethyl-9-methylene-8-oxo-5,5a,6,7,8,9,10,11,12,12a-decahydro-4H-7,12b-(epoxymethano)-7a,10-methanocyclohepta[7,8]naphtho[1,2-d]thiazol-2-yl)acetamide] |  |  |  |  | 6.71 | 6.7 | 4.83 | 4.8 | 1.99 | 2 | 6.34 | 6.3 | 6.82 | 6.8 | 
4 | C=C1C(=O)[C@@]23C(CC[C@H]1[C@H]2O)[C@@]12CO[C@]3(O)[C@@H](O)C1C(C)(C)Cc1sc(N3CCCCCC3)nc12 (stereo partly drawn) [CYD-6-26-2, (6S,7S,7aR,10R,12bR,15R)-2-(azepan-1-yl)-6,7,15-trihydroxy-5,5-dimethyl-9-methylene-5,5a,6,7,10,11,12,12a-octahydro-4H-7,12b-(epoxymethano)-7a,10-methanocyclohepta[7,8]naphtho[1,2-d]thiazol-8(9H)-one] |  |  |  |  | 6.29 | 6.3 | 2.3 | 2.3 | 1.15 | 1.2 | 4.74 | 4.7 | 6.82 | 6.8 | 
5 | C=C1C(=O)[C@@]23[C@@H]4OC(C)(C)O[C@@]25OC[C@]2(C6=C(CC[C@@H](OCC)O6)CC(C)(C)[C@H]2[C@@H]5O)[C@@H]3CC[C@@H]14 [CYD-8-45-1] |  |  |  |  |  |  |  |  |  |  |  |  |  |  | IC50 (MDA-MB-468): 5.4 ± 0.98 µM; IC50 (MCF-7/ADR): 4.65 ± 3.15 µM; IC50 (MCF-7; [14]): 3.52 ± 2.15 µM; IC50 (MDA-MB-231; [15]): 6.13 ± 2.43 µM
6 | C=C1C(=O)[C@@]23[C@@H]4OC(C)(C)O[C@@]25OC[C@]2(C6=C(CC[C@@H](OCC)O6)CC(C)(C)[C@H]2[C@@H]5O)[C@@H]3CC[C@@H]14 [CYD-8-45-2] |  |  |  |  |  |  |  |  |  |  |  |  |  |  | IC50 (MDA-MB-468): 0.52 ± 0.18 µM; IC50 (MCF-7/ADR): 1.64 ± 0.72 µM; IC50 (MCF-7; [14]): 0.44 ± 0.27 µM; IC50 (MDA-MB-231; [15]): 0.54 ± 0.14 µM
7 | C=C1C(=O)[C@]23[C@H](O)[C@H]1CC[C@H]2[C@@]12CO[C@@]3(O)[C@@H](O)[C@@H]1C(C)(C)CC1=C2O[C@@H](OCC)CC1 [CYD-8-50] | 2.24 ± 0.68 | 3.18 ± 0.89 | 1.9 ± 0.97 | 3.32 ± 1.01 |  |  |  |  |  |  |  |  |  |  | 
8 | C=C1C(=O)[C@@]23[C@@H]4OC(C)(C)O[C@@]25OC[C@]2(C6=C(CC[C@H](OCC(C)C)O6)CC(C)(C)[C@H]2[C@@H]5O)[C@@H]3CC[C@@H]14 [CYD-8-52-1] | 2.62 ± 0.08 | 4.42 ± 0.9 | 2.24 ± 1.33 | 1.76 ± 0.22 |  |  |  |  |  |  |  |  |  |  | 
9 | C=C1C(=O)[C@@]23[C@@H]4OC(C)(C)O[C@@]25OC[C@]2(C6=C(CC[C@@H](OCC(C)C)O6)CC(C)(C)[C@H]2[C@@H]5O)[C@@H]3CC[C@@H]14 [CYD-8-52-2] | 6.95 ± 1.01 | 10.3 ± 1.65 | 5.83 ± 3.75 | 8.18 ± 0.57 |  |  |  |  |  |  |  |  |  |  | 

From patent publication US9725460B2, “Oridonin analogs, compositions, and methods related thereto” (THE BOARD OF REGENTS OF THE UNIVERSITY OF TEXAS SYSTEM, priority 2013, dated 2017)
